# From patent US4724233A, “Therapeutical application of phosphonylmethoxyalkyl adenines” (Stichting Rega VZW, priority 1985, dated 1988)
# Like-named read-outs stand apart in the source and are kept apart here.
# Key:
# Moloney sarcoma = assay: inhibition of Moloney sarcoma virus; assay type: cell-based, Moloney mouse sarcoma virus; conditions: Mus musculus; Table 3; MO cells; read-out: MIC50
# [1] = antimetabolic activity: incorporation of 3H-labeled precursors into primary rabbit kidney cells; conditions: rabbit, prk cells
# vaccinia virus (VV) = assay type: cell-based; conditions: PRK cells, average of two determinations
# Reovirus = assay: inhibition of cytopathic effect of reovirus; assay type: cell-based; conditions: Reovirus sp.; Table 3; Vero B cells; read-out: MIC50
# Vesicular stomatitis = assay: microbe, parasite or virus in culture; assay type: cell-based; conditions: read-out: MIC50
# Coxsackie B4 = assay: inhibition of cytopathic effect of Coxsackie B4; assay type: cell-based; conditions: Enterovirus B, B4; Table 3; Vero B, HeLa cells; read-out: MIC50
# Herpes simplex I (KOS) = assay: inhibition of cytopathic effect of herpes simplex 1 (KOS); assay type: cell-based, herpes simplex virus type 1; conditions: PRK cells; for EC50: Human alphaherpesvirus 1, read-out: MIC50
# HSV-1 (strain) McIntyre = assay: inhibition of cytopathic effect of HSV-1 strain McIntyre; assay type: cell-based, herpes simplex virus type 1; conditions: Human alphaherpesvirus 1; Table 4; HSV-1 McIntyre, PRK cells; read-out: MIC50
# [2] = system: HSV-1 (strain) TK^- C1101; assay: inhibition of cytopathic effect of HSV-1 TK- strain C1101; assay type: cell-based, herpes simplex virus type 1; conditions: Human alphaherpesvirus 1, PRK, read-out: MIC50
# Herpes simplex 2 (G) = assay: inhibition of cytopathic effect of herpes simplex 2 (G); assay type: cell-based, herpes simplex virus type 2; conditions: Human alphaherpesvirus 2, PRK, PRK cells, read-out: MIC50
# Parainfluenza 3 = assay: inhibition of cytopathic effect of parainfluenza 3; assay type: cell-based; conditions: Table 3; Vero B cells; read-out: MIC50
# [3] = system: herpes simplex virus type 1 (HSV-1) (strain KOS); assay type: cell-based; conditions: PRK cells
# HSV-2 (strain) 196 = assay: inhibition of cytopathic effect of HSV-2 strain 196; assay type: cell-based, herpes simplex virus type 2; conditions: Human alphaherpesvirus 2; Table 4; HSV-2 196, PRK cells; read-out: MIC50
# HSV-1 (strain) F = assay: inhibition of cytopathic effect of HSV-1 strain F; assay type: cell-based, herpes simplex virus type 1; conditions: Human alphaherpesvirus 1; Table 4; HSV-1 F, PRK cells; read-out: MIC50
# in vitro [4] = conditions: rabbit, prk cells
# Vaccinia = assay: microbe, parasite or virus in culture; assay type: cell-based; conditions: Orthopoxvirus vaccinia, PRK, read-out: MIC50
# HSV-2 (strain) Lyons = assay: inhibition of cytopathic effect of HSV-2 strain Lyons; assay type: cell-based, herpes simplex virus type 2; conditions: Human alphaherpesvirus 2; Table 4; HSV-2 Lyons, PRK cells; read-out: MIC50
# Sindbis = assay: inhibition of cytopathic effect of Sindbis; assay type: cell-based; conditions: Table 3; Vero B cells; read-out: MIC50
# Polio 1 = assay: microbe, parasite or virus in culture; assay type: cell-based; conditions: HeLa, read-out: MIC50
# Measles = assay: inhibition of cytopathic effect of measles; assay type: cell-based; conditions: Measles morbillivirus; Table 3; Vero Flow cells; read-out: MIC50
# in vitro [5] = conditions: rabbit, prk cells; remark: listed apart in the source
# [6] = system: HSV-1 (strain) TK^- B2006; assay: inhibition of cytopathic effect of HSV-1 TK- strain B2006; assay type: cell-based, herpes simplex virus type 1; conditions: Human alphaherpesvirus 1, PRK, read-out: MIC50
# [7] = ID50 Leu incorporation, (3H-4,5)Leu
# [8] = ID50 Urd incorporation, (3H-5)Urd
# [9] = ID50 dThd incorporation, (3H-methyl) dThd
# [10] = ID50 dUrd incorporation, (3H-1',2')dUrd
# [11] = 48 h, 10 μg/ml (value in parentheses)
SMILES,EC50 (Moloney sarcoma),"IC50 [1, 7]","IC50 [1, 8]","IC50 [1, 9]","IC50 [1, 10]","Titer of VV (vaccinia virus (VV); 48 h, 100 μg/ml)",EC50 (Reovirus),EC50 (Vesicular stomatitis),EC50 (Coxsackie B4),EC50 (Herpes simplex I (KOS); Table 3),EC50 (HSV-1 (strain) McIntyre),EC50 (Herpes simplex 2 (G); Table 3),EC50 (Parainfluenza 3),EC50 (HSV-2 (strain) 196),MCC at 72 h (in vitro [4]),EC50 (Vaccinia),EC50 (HSV-2 (strain) Lyons),EC50 (Sindbis),EC50 (Polio 1),EC50 (Measles),also measured
"Nc1ncnc2c1ncn2CC(O)COCP(=O)(O)O (racemic) [No. 2, (RS)-9-(2-hydroxy-3-phosphonylmethoxypropyl)-adenine]",4.5 µg/mL,> 400 µg/mL,> 400 µg/mL,280 µg/mL,> 400 µg/mL,2.0 log10 PFU/ml,> 200 µg/mL,> 400 µg/mL,> 400 µg/mL,2 to 10 µg/mL,10 to 15 µg/mL,10 to 15 µg/mL,> 200 µg/mL,10 to 15 µg/mL,> 400 µg/mL,0.3 to 1 µg/mL,10 to 15 µg/mL,> 400 µg/mL,> 400 µg/mL,> 20 µg/mL,"Titer of VV (vaccinia virus (VV); 1 h, 100 μg/ml): 2.2 log10 PFU/ml; Titer of VV (vaccinia virus (VV); 24 h, 100 μg/ml): 2.2 log10 PFU/ml; Titer of VV (vaccinia virus (VV); [11]): < 1.3 log10 PFU/ml; Titer of VV (vaccinia virus (VV); 72 h, 100 μg/ml): 1.8 log10 PFU/ml; MIC50 (Herpes simplex I (KOS); Table 4, HSV-1 KOS): 2 to 10 µg/mL; EC50 [2]: 7 µg/mL; EC50 (Herpes simplex 2 (G); Table 4, HSV-2 G): 10 to 15 µg/mL; Titer of HSV-1 ([3]; 24 h, 100 μg/ml): < 1.3 log10 PFU/ml; Titer of HSV-1 [3, 11]: < 6.0 log10 PFU/ml; Titer of HSV-1 ([3]; 48 h, 100 μg/ml): < 1.3 log10 PFU/ml; EC50 (HSV-1 (strain) F): 10 to 15 µg/mL"
"Nc1ncnc2c1ncn2C[C@H](O)COCP(=O)(O)O (racemic) [No. 3, (RS)-9-(2-hydroxy-3-phosphonylmethoxypropyl)-adenine]",,> 400 µg/mL,> 400 µg/mL,> 400 µg/mL,> 400 µg/mL,,> 400 µg/mL,> 400 µg/mL,> 400 µg/mL,70 to 150 µg/mL,150 µg/mL,30 to 150 µg/mL,> 400 µg/mL,70 to 150 µg/mL,≥ 200 µg/mL,15 to 30 µg/mL,30 to 100 µg/mL,> 400 µg/mL,> 400 µg/mL,> 400 µg/mL,"MIC50 (Herpes simplex I (KOS); Table 4, HSV-1 KOS): 70 to 150 µg/mL; EC50 [2]: 30 to 40 µg/mL; EC50 (Herpes simplex 2 (G); Table 4, HSV-2 G): 30 to 150 µg/mL; EC50 (HSV-1 (strain) F): 70 to 150 µg/mL"
"Nc1ncnc2c1ncn2C[C@H](O)CO [(S)-DHPA, 9-(S)-(2,3-dihydroxypropyl)adenine, reference compound]",> 200 µg/mL,> 400 µg/mL,> 400 µg/mL,350 µg/mL,> 400 µg/mL,5.2 log10 PFU/ml,100 µg/mL,20 µg/mL,130 µg/mL,> 400 µg/mL,,> 400 µg/mL,25 µg/mL,,> 400 µg/mL,50 µg/mL,,> 400 µg/mL,> 400 µg/mL,20 µg/mL,"Titer of VV (vaccinia virus (VV); 1 h, 100 μg/ml): 2.0 log10 PFU/ml; Titer of VV (vaccinia virus (VV); 24 h, 100 μg/ml): 4.7 log10 PFU/ml; Titer of VV (vaccinia virus (VV); 72 h, 100 μg/ml): 5.5 log10 PFU/ml; Titer of HSV-1 ([3]; 1 h, 100 μg/ml): 1.3 log10 PFU/ml; Titer of HSV-1 ([3]; 24 h, 100 μg/ml): 6.5 log10 PFU/ml; Titer of HSV-1 ([3]; 48 h, 100 μg/ml): 6.9 log10 PFU/ml; Titer of HSV-1 ([3]; 72 h, 100 μg/ml): 6.9 log10 PFU/ml"
"O=c1[nH]c(=O)n([C@H]2C[C@H](O)[C@@H](CO)O2)cc1I [IDU, 5-iodo-2'-deoxyuridine, reference compound]",,,,,,,,,,,0.2 µg/mL,,,2 µg/mL,,,0.2 µg/mL,,,,"EC50 (Herpes simplex I (KOS); Table 4, HSV-1 KOS): 0.2 µg/mL; EC50 (Herpes simplex 2 (G); Table 4, HSV-2 G): 0.2 µg/mL; EC50 (HSV-1 (strain) F): 0.2 µg/mL"
"Nc1ncnc2c1ncn2CCOCP(=O)(O)O [No. 6, 9-(2-phosphonylmethoxyethyl)adenine]",0.67 µg/mL,,,,,5.54 log10 PFU/ml,> 400 µg/mL,> 400 µg/mL,> 200 µg/mL,15 to 30 µg/mL,30 µg/mL,7 µg/mL,> 400 µg/mL,15 µg/mL,≥ 200 µg/mL,300 µg/mL,15 µg/mL,> 400 µg/mL,> 400 µg/mL,> 400 µg/mL,"IC50 (in vitro [5]; ID50 Leu incorporation): > 400 µg/mL; IC50 (in vitro [5]; ID50 Urd incorporation): > 400 µg/mL; IC50 (in vitro [5]; ID50 dThd incorporation): 242 µg/mL; IC50 (in vitro [5]; ID50 dUrd incorporation): 114 µg/mL; MIC50 (Herpes simplex I (KOS); Table 4, HSV-1 KOS): 15 to 30 µg/mL; EC50 [2]: 7 µg/mL; Titer of HSV-1 ([3]; 24 h, 100 μg/ml): < 1.3 log10 PFU/ml; Titer of HSV-1 [3, 11]: 6.36 log10 PFU/ml; Titer of HSV-1 ([3]; 48 h, 100 μg/ml): 3.34 log10 PFU/ml; EC50 [6]: 3 µg/mL"
